Source: patent US10723711B2, “1,1,1-trifluoro-3-hydroxypropan-2-yl carbamate derivatives and 1,1,1-trifluoro-4-hydroxybutan-2-yl carbamate derivatives as MAGL inhibitors” (PFIZER INC., priority 2015, dated 2020)
Read-outs that look alike come from different tables or passages of the source.

Key:
Assay type in all cases: biochemical
[1] = biological target: T1, human recombinant Monoacylglycerol Lipase (Homo sapiens, UniProt Q99685); assay: MAGL inhibition enzymatic assay, fluorogenic substrate 7-HCA, IC50 at T=0 min or after 30 minute incubation (T=30 min); settings: geometric mean of 2-4 determinations unless otherwise indicated
T1 sequence (Q99685 1-303): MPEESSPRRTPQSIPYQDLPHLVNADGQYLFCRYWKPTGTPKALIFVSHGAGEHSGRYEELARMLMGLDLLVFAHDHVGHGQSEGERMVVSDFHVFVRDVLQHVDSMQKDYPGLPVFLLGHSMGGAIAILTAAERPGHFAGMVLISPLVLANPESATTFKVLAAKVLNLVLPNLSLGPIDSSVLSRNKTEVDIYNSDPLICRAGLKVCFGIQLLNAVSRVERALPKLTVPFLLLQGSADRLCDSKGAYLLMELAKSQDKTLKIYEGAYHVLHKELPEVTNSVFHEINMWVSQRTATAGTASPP
Procedure: An equal volume of 7-HCA in assay buffer with 10% DMSO was added either immediately (T=0 min) or after a 30 minute incubation (T=30 min) to initiate the reaction. […] After these dilutions, the final concentration of the test compound ranged from 3 μM to 0.03 nM. […] IC50 values were generated based on a four parameter fit model using ABASE software from IDBS.

[2] = biological target: T1, human recombinant Monoacylglycerol Lipase; assay: MAGL inactivation, enzyme progress curves, kinact/KI; settings: from enzyme progress curves, T = 0 min protocol; geometric mean of 2-4 determinations unless otherwise indicated
Procedure: Assessment of MAGL inhibition utilizes human recombinant Monoacylglycerol Lipase and the fluorogenic substrate 7-hydroxycoumarinyl arachidonate (7-HCA, Biomol ST-502). 400 nL of a test compound at decreasing concentration (ranging from 150 μM down to 1.5 nM) was spotted into a 384-well back plate (PerkinElmer, 6007279) using a Labcyte Echo, followed by addition of 10 μL of MAGL enzyme in assay buffer (50 mM HEPES, pH 7.4, 100 mM NaCl, 5 mM MgCl2, 0.1% Triton X-100 and 25% glycerin). An equal volume of 7-HCA in assay buffer with 10% DMSO was added either immediately (T=0 min) or after a 30 minute incubation (T=30 min) to initiate the reaction. The final concentration of MAGL enzyme was […] and 7-HCA substrate was 5 μM. After these dilutions, the final concentration of the test compound ranged from 3 μM to 0.03 nM. The reaction was allowed to progress for 60 minutes, after which the plate was read at an Ex/Em of 340/465. Percent inhibitions were calculated based on control wells containing no compound (0% inhibition) and a control compound (e.g., a MAGL inhibitor whose activity is known or was previously reported in the literature, such as one with about 100% inhibition). IC50 values were generated based on a four parameter fit model using ABASE software from IDBS. See e.g., Wang, Y. et al., “A Fluorescence-Based Assay for Monoacylglycerol Lipase Compatible with Inhibitor Screening,” Assay and Drug Development Technologies, 2008, Vol. 6 (3) pp 387-393 (reporting an assay for measuring MAGL activity).
To measure MAGL inactivation, the same protocol for the (T=0 min) MAGL inhibition IC50 assay was performed with data collected every minute to acquire enzyme progress curves at decreasing concentrations of compound.

[3] = biological target: T2, human recombinant FAAH (Homo sapiens, UniProt O00519); assay: FAAH inhibition enzymatic assay, fluorescent substrate Arachidonoyl-AMC, 30 minute incubation; settings: T = 30 min (30 minute incubation); geometric mean of 2-4 determinations unless otherwise indicated
T2 construct: purchased Cayman 10010183
T2 sequence (O00519 1-579): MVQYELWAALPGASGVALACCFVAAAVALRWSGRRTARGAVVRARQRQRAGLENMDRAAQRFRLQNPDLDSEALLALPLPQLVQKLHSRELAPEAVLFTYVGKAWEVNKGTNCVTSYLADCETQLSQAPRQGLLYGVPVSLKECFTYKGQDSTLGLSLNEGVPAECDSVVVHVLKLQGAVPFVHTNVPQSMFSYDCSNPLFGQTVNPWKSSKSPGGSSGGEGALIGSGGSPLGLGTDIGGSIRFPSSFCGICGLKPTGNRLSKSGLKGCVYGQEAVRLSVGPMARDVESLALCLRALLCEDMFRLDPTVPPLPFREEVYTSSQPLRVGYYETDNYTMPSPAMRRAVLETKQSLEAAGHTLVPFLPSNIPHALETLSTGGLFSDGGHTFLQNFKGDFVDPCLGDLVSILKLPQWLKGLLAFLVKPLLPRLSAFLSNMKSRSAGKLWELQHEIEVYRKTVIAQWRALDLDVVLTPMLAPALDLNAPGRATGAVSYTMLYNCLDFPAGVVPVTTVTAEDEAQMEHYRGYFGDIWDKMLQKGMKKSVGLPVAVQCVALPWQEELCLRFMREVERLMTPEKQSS
Procedure: Assessment of FAAH inhibition utilizes human recombinant FAAH and the fluorescent substrate, Arachidonoyl-AMC. 400 nL of a test compound at decreasing concentrations was spotted into a 384-well back plate (PerkinElmer, 6007279) using a Labcyte Echo, followed by addition of 10 μl of FAAH enzyme (Cayman 10010183) in assay buffer (50 mM Tris, pH 9.0, 1 mM EDTA). After a 30 minute incubation at room temperature, 10 μL of Arachidonyl-AMCA was added in assay buffer with 16% DMSO. Final concentration of FAAH enzyme was 0.0125 Units and AAMCA substrate was used at the Km of 5 μM. […] The reaction was allowed to progress for 60 minutes, after which the plate was read on a Molecular Devices FlexStation reader at an Ex/Em of 355/460. Percent inhibitions were calculated based on controls wells containing either no compound (0% inhibition) or a control compound (e.g., an FAAH inhibitor whose activity is known or was previously reported in the literature, such as one with about 100% inhibition). IC50 values were generated based on a four parameter fit model using ABASE software from IDBS.

[4] = T = 0 min (substrate added immediately), read-out: MAGL (T = 0 min) IC50
[5] = T = 30 min (30 minute incubation), read-out: MAGL (T = 30 min) IC50

Structure (SMILES) | IC50 [1, 4] | IC50 [1, 5] | MAGL kinact/KI [2] | IC50 [3]
O=C(O[C@@H]([C@@H](O)C(F)(F)F)C(F)(F)F)N1C[C@@H]2[C@H](C1)[C@H]2c1ccn(-c2ccc(F)cc2)n1 (racemic) [Example 36] | 132 nM | 12 nM | 3736 1/s per M | 13.2 µM
CC(c1ccc(F)cc1)N1CCOC2(CCN(C(=O)O[C@H](CO)C(F)(F)F)CC2)C1 (single isomer, unassigned) [Example 44] | 179 nM | 17 nM | 3701 1/s per M | > 30 µM
CC(c1ccc(F)cc1)N1CCOC2(CCN(C(=O)O[C@H](CO)C(F)(F)F)CC2)C1 (single isomer, unassigned) [Example 45] | 191 nM | 18 nM | 3134 1/s per M | > 30 µM
O=C(O[C@H](CO)C(F)(F)F)N1CCC2(CC1)CC(c1ccccc1)CO2 (single isomer, unassigned) [Example 95] | 16 nM | 1 nM | 131495 1/s per M | 8.72 µM
O=C(O[C@H](CO)C(F)(F)F)N1CCC2(CC1)CC(c1ccccc1)CO2 (single isomer, unassigned) [Example 96] | 62 nM | 5 nM | 18560 1/s per M | 9.52 µM
CN(C(=O)c1ccccc1)C1COC2(CCN(C(=O)O[C@H](CO)C(F)(F)F)CC2)C1 (single isomer, unassigned) [Example 99] | 107 nM | 11 nM | 16883 1/s per M | > 30 µM
CN(C(=O)c1ccccc1)C1COC2(CCN(C(=O)O[C@H](CO)C(F)(F)F)CC2)C1 (single isomer, unassigned) [Example 100] | 86 nM | 10 nM | 5664 1/s per M | > 28.7 µM
CN(C1COC2(CCN(C(=O)O[C@H](CO)C(F)(F)F)CC2)C1)S(=O)(=O)c1cccc(F)c1 (single isomer, unassigned) [Example 108] | 51 nM | 3 nM | 15960 1/s per M | 10.7 µM
CN(C1COC2(CCN(C(=O)O[C@H](CO)C(F)(F)F)CC2)C1)S(=O)(=O)c1cccc(F)c1 (single isomer, unassigned) [Example 109] | 21 nM | 2 nM | 34918 1/s per M | > 30 µM
CN(C1COC2(CCN(C(=O)O[C@H](CO)C(F)(F)F)CC2)C1)S(=O)(=O)c1ccc(F)cc1 (single isomer, unassigned) [Example 110] | 70 nM | 6 nM | 8796 1/s per M | 7.09 µM
CN(C1COC2(CCN(C(=O)O[C@H](CO)C(F)(F)F)CC2)C1)S(=O)(=O)c1ccc(F)cc1 (single isomer, unassigned) [Example 111] | 28 nM | 2 nM | 33483 1/s per M | > 30 µM
O=C(O[C@H](CO)C(F)(F)F)N1CCC2(CC1)CC(Oc1ccccn1)CO2 (single isomer, unassigned) [Example 130] | 76 nM | 6 nM | 12483 1/s per M | 25.7 µM
O=C(OC(C(F)(F)F)C(F)(F)CO)N1CCC2(CC1)CN(S(=O)(=O)c1ccc(F)cc1)CCO2 (single isomer, unassigned; ent-1) [Example 20, 1,1,1,3,3-Pentafluoro-4-hydroxybutan-2-yl 4-[(4-fluorophenyl)sulfonyl]-1-oxa-4,9-diazaspiro[5.5]undecane-9-carboxylate, ENT-1] | 61 nM | 6 nM | 4611 1/s per M | > 30 µM
O=C(O[C@H](CO)C(F)(F)F)N1CCC(c2ccn(-c3ccc(F)cc3)n2)CC1 [Example 2, (2R)-1,1,1-Trifluoro-3-hydroxypropan-2-yl 4-[1-(4-fluorophenyl)-1H-pyrazol-3-yl]piperidine-1-carboxylate] | 56 nM | 8 nM | 6109 1/s per M | 1.14 µM
O=C(O[C@H](CO)C(F)(F)F)N1C[C@@H]2[C@H](C1)[C@H]2c1ccn(-c2ccc(F)cc2)n1 [Example 3, (2R)-1,1,1-Trifluoro-3-hydroxypropan-2-yl (1α,5α,6α)-6-[1-(4-fluorophenyl)-1H-pyrazol-3-yl]-3-azabicyclo[3.1.0]hexane-3-carboxylate] | 35 nM | 3 nM | 20005 1/s per M | 2.48 µM
O=C(O[C@H](CO)C(F)(F)F)N1CCC2(CC1)CN(S(=O)(=O)c1ccccc1)CCO2 [Example 7, (2R)-1,1,1-Trifluoro-3-hydroxypropan-2-yl 4-(phenylsulfonyl)-1-oxa-4,9-diazaspiro[5.5]undecane-9-carboxylate] | 29 nM | 3 nM | 29124 1/s per M | > 24.1 µM
O=C(O[C@H](CO)C(F)(F)F)N1CCC2(CC1)C[C@H](NS(=O)(=O)c1ccccc1)CO2 [Example 8, (2R)-1,1,1-Trifluoro-3-hydroxypropan-2-yl (3S)-3-[(phenylsulfonyl)amino]-1-oxa-8-azaspiro[4.5]decane-8-carboxylate] | 57 nM | 5 nM | 6754 1/s per M | > 30 µM
O=C(O[C@H](CO)C(F)(F)F)N1CCC(Oc2ccc(C3CC3)cn2)CC1 [Example 10, (2R)-1,1,1-Trifluoro-3-hydroxypropan-2-yl 4-[(5-cyclopropylpyridin-2-yl)oxy]piperidine-1-carboxylate] | 77 nM | 7 nM | 5205 1/s per M | > 30 µM
O=C(O[C@H](CO)C(F)(F)F)N1CCC2(CC1)CN(S(=O)(=O)c1cccc(F)c1)CCO2 [Example 11, (2R)-1,1,1-Trifluoro-3-hydroxypropan-2-yl 4-[(3-fluorophenyl)sulfonyl]-1-oxa-4,9-diazaspiro[5.5]undecane-9-carboxylate] | 14 nM | 1 nM | 147964 1/s per M | > 30 µM
